Test results published in PubChem BioAssay AID2060895 (Molecular Pharmacology Branch, DTP, NCI, 2025).
pIC50: −log10 of the molar value.

Tested on: PDC 899932-113-R3-J6 complex spheroid viability
Experiment: Anticancer human tumor 899932-113-R3-J6-PDC patient-derived melanoma cell line growth inhibition [RAS]
Conditions: for pIC50: curve of first compound; for viability, T/C: stronger effect = lower value
Outline: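 Multi-cell-type spheroids: tumor cells plus HUVEC endothelial cells and mesenchymal stem cells. RAS-pathway inhibitors were combined with targeted agents, each dosed in half-log steps down from clinical Cmax, or from 10 microM when Cmax was unknown.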
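Throughout, for viability, T/C: spheroids exposed to agents for seven days before readout; 100% = DMSO vehicle control wells.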

**Q.** How did the pIC50 (second compound 0.00316 µM) turn out when `CC(=O)OC12COC1CC(O)C1(C)C(=O)C(O)C3=C(C)C(OC(=O)C(O)C(NC(=O)OC(C)(C)C)c4ccccc4)CC(O)(C(OC(=O)c4ccccc4)C21)C3(C)C` (centres undefined) + C=CC(=O)N1CCN(c2nc(OCC3CCCN3C)nc3c(F)c(-c4nc(N)cc(C)c4C(F)(F)F)c(Cl)cc23)C(C)C1 was run?
**A.** The pIC50 was over 7.50.

**Q.** And the pIC50 (second compound 0.01 µM)?
**A.** Its pIC50 is over 7.50.

**Q.** And the pIC50 (second compound 0.0316 µM)?
**A.** Its pIC50 is over 7.50.

**Q.** What about the pIC50 (second compound 0.1 µM) of the same compound?
**A.** Its pIC50 is over 7.50.

**Q.** What about the pIC50 (second compound 0.316 µM) of the same compound?
**A.** The pIC50 was over 7.50.

**Q.** And the pIC50 (second compound 1 µM)?
**A.** The pIC50 was over 7.50.

**Q.** What about the viability, T/C (second compound 0.00316 µM, first compound 0.0316 µM) of the same compound?
**A.** The viability, T/C was 30.5%.

**Q.** And the viability, T/C (second compound 0.00316 µM, first compound 0.1 µM)?
**A.** The viability, T/C was 30.6%.

**Q.** What about the viability, T/C (second compound 0.00316 µM, first compound 0.316 µM) of the same compound?
**A.** Its viability, T/C is 40%.

**Q.** And the viability, T/C (second compound 0.00316 µM, first compound 1 µM)?
**A.** Its viability, T/C is 46.4%.

**Q.** What about the viability, T/C (second compound 0.00316 µM, first compound 3.16 µM) of the same compound?
**A.** The viability, T/C was 69.7%.

**Q.** And the viability, T/C (second compound 0.00316 µM, first compound 10 µM)?
**A.** Its viability, T/C is 82.1%.

**Q.** What about the viability, T/C (second compound 0.01 µM, first compound 0.0316 µM) of the same compound?
**A.** Its viability, T/C is 31.2%.

**Q.** What about the viability, T/C (second compound 0.01 µM, first compound 0.1 µM) of the same compound?
**A.** The viability, T/C was 36.1%.

**Q.** And the viability, T/C (second compound 0.01 µM, first compound 0.316 µM)?
**A.** The viability, T/C was 39.6%.

**Q.** And the viability, T/C (second compound 0.01 µM, first compound 1 µM)?
**A.** Its viability, T/C is 57.3%.

**Q.** And the viability, T/C (second compound 0.01 µM, first compound 3.16 µM)?
**A.** Its viability, T/C is 49.5%.

**Q.** What about the viability, T/C (second compound 0.01 µM, first compound 10 µM) of the same compound?
**A.** The viability, T/C was 76.6%.

**Q.** And the viability, T/C (second compound 0.0316 µM, first compound 0.0316 µM)?
**A.** The viability, T/C was 31%.

**Q.** What about the viability, T/C (second compound 0.0316 µM, first compound 0.1 µM) of the same compound?
**A.** Its viability, T/C is 43.6%.

**Q.** What about the viability, T/C (second compound 0.0316 µM, first compound 0.316 µM) of the same compound?
**A.** The viability, T/C was 42.2%.

**Q.** And the viability, T/C (second compound 0.0316 µM, first compound 1 µM)?
**A.** Its viability, T/C is 48.4%.

**Q.** What about the viability, T/C (second compound 0.0316 µM, first compound 3.16 µM) of the same compound?
**A.** The viability, T/C was 68.3%.

**Q.** What about the viability, T/C (second compound 0.0316 µM, first compound 10 µM) of the same compound?
**A.** The viability, T/C was 60.8%.

**Q.** What about the viability, T/C (second compound 0.1 µM, first compound 0.0316 µM) of the same compound?
**A.** The viability, T/C was 34.5%.

**Q.** What about the viability, T/C (second compound 0.1 µM, first compound 0.1 µM) of the same compound?
**A.** Its viability, T/C is 37.2%.

**Q.** And the viability, T/C (second compound 0.1 µM, first compound 0.316 µM)?
**A.** The viability, T/C was 34.2%.

**Q.** What about the viability, T/C (second compound 0.1 µM, first compound 1 µM) of the same compound?
**A.** The viability, T/C was 50.4%.

**Q.** And the viability, T/C (second compound 0.1 µM, first compound 3.16 µM)?
**A.** The viability, T/C was 73.6%.

**Q.** And the viability, T/C (second compound 0.1 µM, first compound 10 µM)?
**A.** Its viability, T/C is 74%.

**Q.** What about the viability, T/C (second compound 0.316 µM, first compound 0.0316 µM) of the same compound?
**A.** Its viability, T/C is 27.6%.

**Q.** And the viability, T/C (second compound 0.316 µM, first compound 0.1 µM)?
**A.** Its viability, T/C is 34.3%.

**Q.** What about the viability, T/C (second compound 0.316 µM, first compound 0.316 µM) of the same compound?
**A.** Its viability, T/C is 44.8%.

**Q.** And the viability, T/C (second compound 0.316 µM, first compound 1 µM)?
**A.** The viability, T/C was 47.1%.

**Q.** And the viability, T/C (second compound 0.316 µM, first compound 3.16 µM)?
**A.** The viability, T/C was 75.1%.

**Q.** And the viability, T/C (second compound 0.316 µM, first compound 10 µM)?
**A.** Its viability, T/C is 79%.

**Q.** And the viability, T/C (second compound 1 µM, first compound 0.0316 µM)?
**A.** Its viability, T/C is 31.5%.

**Q.** And the viability, T/C (second compound 1 µM, first compound 0.1 µM)?
**A.** Its viability, T/C is 37.1%.

**Q.** What about the viability, T/C (second compound 1 µM, first compound 0.316 µM) of the same compound?
**A.** The viability, T/C was 38.8%.

**Q.** What about the viability, T/C (second compound 1 µM, first compound 1 µM) of the same compound?
**A.** The viability, T/C was 51%.

**Q.** And the viability, T/C (second compound 1 µM, first compound 3.16 µM)?
**A.** The viability, T/C was 68.5%.

**Q.** And the viability, T/C (second compound 1 µM, first compound 10 µM)?
**A.** The viability, T/C was 69.2%.

**Q.** `CC1(C)CCC(Nc2ncc(C(F)(F)F)c(-c3c[nH]c4c(P(C)(C)=O)c(C#N)ccc34)n2)CN1` (centres undefined) + C=CC(=O)N1CCN(c2nc(OCC3CCCN3C)nc3c(F)c(-c4nc(N)cc(C)c4C(F)(F)F)c(Cl)cc23)C(C)C1 was tested. Which pIC50 (second compound 0.00316 µM) did it give?
**A.** Its pIC50 is 8.06.

**Q.** What about the pIC50 (second compound 0.01 µM) of the same compound?
**A.** The pIC50 was 8.01.

**Q.** And the pIC50 (second compound 0.0316 µM)?
**A.** Its pIC50 is 7.96.

**Q.** And the pIC50 (second compound 0.1 µM)?
**A.** Its pIC50 is 8.07.

**Q.** What about the pIC50 (second compound 0.316 µM) of the same compound?
**A.** Its pIC50 is 8.02.

**Q.** And the pIC50 (second compound 1 µM)?
**A.** The pIC50 was 8.10.

**Q.** And the viability, T/C (second compound 0.00316 µM, first compound 0.000949 µM)?
**A.** Its viability, T/C is 105%.

**Q.** What about the viability, T/C (second compound 0.00316 µM, first compound 0.003 µM) of the same compound?
**A.** Its viability, T/C is 73%.

**Q.** And the viability, T/C (second compound 0.00316 µM, first compound 0.00949 µM)?
**A.** The viability, T/C was 51.5%.

**Q.** And the viability, T/C (second compound 0.00316 µM, first compound 0.03 µM)?
**A.** The viability, T/C was 25.9%.

**Q.** What about the viability, T/C (second compound 0.00316 µM, first compound 0.0949 µM) of the same compound?
**A.** Its viability, T/C is 16.4%.

**Q.** What about the viability, T/C (second compound 0.00316 µM, first compound 0.3 µM) of the same compound?
**A.** The viability, T/C was 8.68%.

**Q.** What about the viability, T/C (second compound 0.01 µM, first compound 0.000949 µM) of the same compound?
**A.** The viability, T/C was 96.8%.

**Q.** And the viability, T/C (second compound 0.01 µM, first compound 0.003 µM)?
**A.** Its viability, T/C is 79.2%.

**Q.** And the viability, T/C (second compound 0.01 µM, first compound 0.00949 µM)?
**A.** The viability, T/C was 48%.

**Q.** What about the viability, T/C (second compound 0.01 µM, first compound 0.03 µM) of the same compound?
**A.** The viability, T/C was 30.5%.

**Q.** What about the viability, T/C (second compound 0.01 µM, first compound 0.0949 µM) of the same compound?
**A.** The viability, T/C was 16.4%.

**Q.** And the viability, T/C (second compound 0.01 µM, first compound 0.3 µM)?
**A.** The viability, T/C was 11.2%.

**Q.** And the viability, T/C (second compound 0.0316 µM, first compound 0.000949 µM)?
**A.** Its viability, T/C is 102%.

**Q.** And the viability, T/C (second compound 0.0316 µM, first compound 0.003 µM)?
**A.** The viability, T/C was 75.3%.

**Q.** And the viability, T/C (second compound 0.0316 µM, first compound 0.00949 µM)?
**A.** The viability, T/C was 56.3%.

**Q.** And the viability, T/C (second compound 0.0316 µM, first compound 0.03 µM)?
**A.** Its viability, T/C is 29.9%.

**Q.** What about the viability, T/C (second compound 0.0316 µM, first compound 0.0949 µM) of the same compound?
**A.** The viability, T/C was 15.4%.

**Q.** What about the viability, T/C (second compound 0.0316 µM, first compound 0.3 µM) of the same compound?
**A.** Its viability, T/C is 8.82%.

**Q.** And the viability, T/C (second compound 0.1 µM, first compound 0.000949 µM)?
**A.** The viability, T/C was 94.8%.

**Q.** And the viability, T/C (second compound 0.1 µM, first compound 0.003 µM)?
**A.** Its viability, T/C is 68%.

**Q.** What about the viability, T/C (second compound 0.1 µM, first compound 0.00949 µM) of the same compound?
**A.** The viability, T/C was 51.4%.

**Q.** What about the viability, T/C (second compound 0.1 µM, first compound 0.03 µM) of the same compound?
**A.** Its viability, T/C is 28.1%.

**Q.** And the viability, T/C (second compound 0.1 µM, first compound 0.0949 µM)?
**A.** Its viability, T/C is 16.4%.

**Q.** What about the viability, T/C (second compound 0.1 µM, first compound 0.3 µM) of the same compound?
**A.** The viability, T/C was 8.6%.

**Q.** And the viability, T/C (second compound 0.316 µM, first compound 0.000949 µM)?
**A.** Its viability, T/C is 107%.

**Q.** And the viability, T/C (second compound 0.316 µM, first compound 0.003 µM)?
**A.** Its viability, T/C is 73.9%.

**Q.** And the viability, T/C (second compound 0.316 µM, first compound 0.00949 µM)?
**A.** The viability, T/C was 52.9%.

**Q.** What about the viability, T/C (second compound 0.316 µM, first compound 0.03 µM) of the same compound?
**A.** The viability, T/C was 30.4%.

**Q.** What about the viability, T/C (second compound 0.316 µM, first compound 0.0949 µM) of the same compound?
**A.** Its viability, T/C is 12.2%.

**Q.** What about the viability, T/C (second compound 0.316 µM, first compound 0.3 µM) of the same compound?
**A.** The viability, T/C was 9.67%.

**Q.** What about the viability, T/C (second compound 1 µM, first compound 0.000949 µM) of the same compound?
**A.** The viability, T/C was 95.1%.

**Q.** What about the viability, T/C (second compound 1 µM, first compound 0.003 µM) of the same compound?
**A.** The viability, T/C was 71.7%.

**Q.** And the viability, T/C (second compound 1 µM, first compound 0.00949 µM)?
**A.** The viability, T/C was 47.4%.

**Q.** And the viability, T/C (second compound 1 µM, first compound 0.03 µM)?
**A.** Its viability, T/C is 25.7%.

**Q.** And the viability, T/C (second compound 1 µM, first compound 0.0949 µM)?
**A.** The viability, T/C was 10.5%.

**Q.** What about the viability, T/C (second compound 1 µM, first compound 0.3 µM) of the same compound?
**A.** The viability, T/C was 10.9%.
